Consider one compound from patent publication US7262186B2, “Substituted pyrazolo[3,4-d] pyrimidinones as a mitotic kinesin inhibitor” (Merck & Co., Inc., priority 2001, dated 2007).

The target in the experiment is T1, human KSP motor domain (KSP(367H)) (Homo sapiens, UniProt P52732).
T1 construct: were used to amplify the motor domain and the neck linker region; made in house; host or cells: E. coli BL21 (DE3), pRSETa vector
T1 sequence (P52732 18-359 limits assumed): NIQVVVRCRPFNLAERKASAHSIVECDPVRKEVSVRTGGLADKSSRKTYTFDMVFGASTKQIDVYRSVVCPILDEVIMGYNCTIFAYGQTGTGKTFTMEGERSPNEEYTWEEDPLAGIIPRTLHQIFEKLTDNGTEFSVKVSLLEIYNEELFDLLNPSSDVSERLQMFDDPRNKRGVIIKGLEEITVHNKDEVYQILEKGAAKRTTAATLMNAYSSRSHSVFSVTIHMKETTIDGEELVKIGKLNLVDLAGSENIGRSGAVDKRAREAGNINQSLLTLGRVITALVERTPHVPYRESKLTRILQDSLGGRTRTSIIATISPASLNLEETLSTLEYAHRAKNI
In words: Kinesin ATPase in vitro assay. The class given is biochemical. The conditions noted are these: microtubule-stimulated ATPase, 1 mM ATP, 23° C., quinaldine red/ammonium molybdate phosphate detection. The source says: I. Kinesin ATPase In Vitro Assay
Cloning and Expression of Human Poly-histidine Tagged KSP Motor Domain (KSP(367H))
Plasmids for the expression of the human KSP motor domain construct were cloned by PCR using a pBluescript full length human KSP construct (Blangy et al., Cell, vol. 83, pp 1159-1169, 1995) as a template. The N-terminal primer 5′-[…] (SEQ.ID.NO.: 1) and the C-terminal primer 5′-[…] […] (SEQ.ID.NO.: 2) were used to amplify the motor domain and the neck linker region. The PCR products were digested with AseI and XhoI, ligated into the NdeI/XhoI digestion product of pRSETa (Invitrogen) and transformed into E. coli BL21 (DE3).
Cells were grown at 37° C. to an OD600 of 0.5. […]
The kinesin motor domain is incubated with microtubules, 1 mM ATP (1:1 MgCl2: Na-ATP), and compound at 23° C. in buffer containing 80 mM K-HEPES (pH 7.0), 1 mM EGTA, 1 mM DTT, 1 mM MgCl2, and 50 mM KCl. […] Free phosphate from the ATP hydrolysis reaction is measured via a quinaldine red/ammonium molybdate assay by adding 150 μl of quench C buffer containing a 2:1 ratio of quench A:quench B. Quench A contains 0.1 mg/ml quinaldine red and 0.14% polyvinyl alcohol; quench B contains 12.3 mM ammonium molybdate tetrahydrate in 1.15 M sulfuric acid. The reaction is incubated for 10 minutes at 23° C., and the absorbance of the phospho-molybdate complex is measured at 540 nm.

Turning to `CCC(c1nc2[nH]nc(Br)c2c(=O)n1Cc1ccccc1)N(CCN(C)C)C(=O)c1ccc(Br)cc1` (stereo not shown) [1-5, N-[1-(5-benzyl-3-bromo-4-oxo-4,5-dihydro-1H-pyrazolo[3,4-d]pyrimidin-6-yl)propyl]-4-bromo-N-[2-(dimethylamino)ethyl]benzamide], the IC50 (commonly the midpoint of a concentration-inhibition curve) was at most 50 µM.
